Measurements: patent US20170246144A1, “METHOD OF PREVENTING OR TREATING SPINOCEREBELLAR ATAXIA BY ADMINISTRATING SILIBININ” (National Taiwan Normal University, priority 2016, published 2017)

How the values were obtained:
SH-SY5Y cells [1] = experiment: Western blotting of calpain-2 and SBDP after MSG; assay type: cell-based, Human; conditions: 15 μM, 100 mM MSG, 6 hours
Procedure: The levels of calpain-2 and SBDPs were measured by western blotting in 1×10^6 SH-SY5Y cells, wherein the control group (Ctrl) was untreated SH-SY5Y cells or the cells were treated with 100 mM MSG, 100 mM MSG+15 μM SB or 100 mM MSG+10 μM MK801 (MK) for 6 hours. Actin was used as a loading control.
In present embodiment, western blotting was performed to study whether silibinin protects SH-SY5Y cell from apoptosis due to glutamatergic excitotoxicity via calcium-dependent apoptosis pathway.
Calpain-2, a thiol proteinase, is activated by the increases of intracellular free calcium ions and the reduction of Bcl-2 level. The level of SBDPs was elevated by calcium-induced calpain-2 in glutamate-induced cell death. Therefore, calpain-2 and SBDPs were used as indicators in the present embodiment.
SH-SY5Y cells were treated with silibinin at pre-determined concentrations or 10 μM MK801 for 1 hour followed by the treatment of 100 mM MSG. Western blotting was performed to analyze the levels of calpain-2 and SBDP.

SH-SY5Y cells [2] = experiment: MTT cytotoxicity of silibinin toward SH-SY5Y cells; assay type: cell-based; conditions: Homo sapiens, 24 hours, read-out: cyto-toxicity toward SH-SY5Y cells, IC50
Text: FIGS. 1A and 1B show the effects of silibinin (SB) in reducing the death of SH-SY5Y cell induced by mono-sodium glutamate (MSG). […] Data were the mean values of three independent experiments. Ctrl: control group.
In order to monitor the cyto-toxicity of silibinin and its ability in resisting glutamatergic excitotoxicity, MTT colorimetric assay was used to measure the cell viability rate of neuroblastoma SH-SY5Y cells which were pre-treated with silibinin and mono-sodium glutamate (MSG).
After the treatment, 0.5 mg/mL MTT was added to the culture media, and the cells were incubated for 3 hours at 37° C. 100 μL lysis solution (10% sodium dodecyl sulfate (SDS) and 0.01N HCl) was added and the absorbance of the media was read at OD570. The percentage of cell viability was calculated as follows:
Cell viability (%)=(OD570 of experimental well/OD570 of control well)×100%

SH-SY5Y cells [3] = experiment: Western blotting of Bax and Bcl-2 after MSG; assay type: cell-based, Human; conditions: 15 μM, 100 mM MSG, 6 hours
Procedure: The levels of Bax and Bcl-2 in 1×10^6 SH-SY5Y cells were measured by western blotting, wherein the control group (Ctrl) was untreated SH-SY5Y cells or the cells were treated with 100 mM MSG, 100 mM MSG+15 μM SB or 100 mM MSG+10 μM MK801 (MK) for 6 hours. Actin was used as a loading control.
In present embodiment, western blotting was performed to study whether silibinin protects SH-SY5Y cell from apoptosis due to glutamatergic excitotoxicity via mitochondria-dependent apoptosis pathway.
It is known that the reduction of Bcl-2 level and the increases of Bax level are related to the increases of free calcium ion in cytosol. Bcl-2 is a cell-survival protein and Bax is a pro-apoptotic protein and they both mediate the releases of cytochrome C from mitochondria. Therefore, Bcl-2 and Bax are used as indicators in the present embodiment.

nTBP/Q79-EGFP cells = experiment: MTT viability of Dox-induced nTBP/Q79-EGFP cells; assay type: cell-based, Human; conditions: 15 μM, Dox induction 5 days
Procedure: FIGS. 8A-8C show the effects of SB on improving the viability of nTBP/Q79-EGFP cells and inhibiting the expression levels of cleaved caspase-9, cleaved caspase-3, and cleaved PARP in nTBP/Q79-EGFP cells induced by doxycycline (Dox). FIG. 8A: The viabilities of 1.0×10^6 nTBP/Q36-EGFP cells and nTBP/Q79-EGFP cells which were pretreated with 15 μM SB for 1 hour followed by the induction of Dox for 1, 3, and 5 days were measured by MTT assay. FIG. 8B: 1.0×10^6 nTBP/Q36-EGFP cells and nTBP/Q79-EGFP cells were pretreated with 15 μM SB for 1 hour followed by the induction of Dox for 5 days. The levels of cleaved caspase-9, cleaved caspase-3, and cleaved PARP were detected by western blotting. Actin was used as a loading control. […] The results were shown as mean±SD, n=3, *p<0.05, comparing to the Dox group.
Human neuroblastoma SH-SY5Y cell line was obtained from American Type Culture Collection (ATCC). nTBP/Q36-EGFP cells (poly-Q of TATA-binding protein contains 36 glutamines in SH-SY5Y cells) and nTBP/Q79-EGFP cells (poly-Q of TATA-binding protein contains 79 glutamines in SH-SY5Y cells) were kindly supplied by Dr. Guey-Jen Lee-Chen, National Taiwan Normal University (NTNU). […]
The cell viability was measured using MTT colorimetric assay as mentioned previously. […]

[4] = Body weight of SCA17 transgenic mice; assay type: in vivo; conditions: 4.5 mg/kg i.p. once every 2 days, 10 to 20 weeks old
Procedure: FIGS. 10A-10F show the effects of SB on the body weight and motor performance in SCA17 transgenic mice. Mice were grouped into wild type-saline (WT-saline), transgenic-saline (TG-saline), and transgenic-SB treatment (TG-SB) groups. Mice were injected intraperitoneally with saline or SB (4.5 mg/kg) at 8-week old once every 2 days. […] FIG. 10E and FIG. 10F show respectively the stride length of front-limb/hind-limb at the right-side and the left-side. The values represent means±SD, n=6. *p<0.05, comparing to the TG-saline group.
In order to understand the efficacy of silibinin in treating SCA17 in vivo, SCA17 transgenic mice (referring as SCA17 mice hereinafter) were used, which were kindly provided by Dr. Hsiu-Mei Hsieh in NTNU.
The mice were housed individually in ventilated cages with a 12-hour light/dark cycle. All mice were maintained in the animal facility in NTNU under specific pathogen-free conditions in accordance with institutional guidelines of the Animal Care and Use Committee at NTNU. The experimental animals were used for motor behavioral assessments, footprint test and the protein aggregation analysis in cerebellum.
Since the SCA17 mice were 8 weeks old, the mice were injected intraperitoneally with silibinin in saline at 4.5 mg/kg once every 2 days, designated as TG_SB group. The mice in TG_saline group were injected with same amount of saline.

In the case of `COc1cc(C2Oc3cc([C@H]4Oc5cc(O)cc(O)c5C(=O)[C@@H]4O)ccc3OC2CO)ccc1O` (stereo partly shown) [silibinin], the “reduction of SBDP level, compared to the increased level with MSG only” value (SH-SY5Y cells [1]) is reported as 250%, the “reduction of calpain-2 level, compared to the increased level with MSG only” value (SH-SY5Y cells [1]) is reported as 200% and the IC50 (SH-SY5Y cells [2]) is reported as 30 µM. The “increase of Bcl-2 level, compared to MSG only” value (SH-SY5Y cells [3]) was “approximately 167%”, the “reduction of Bax level, compared to MSG only” value (SH-SY5Y cells [3]) was 80% and the “increase of cell viability of nTBP/Q79-EGFP cells” value (nTBP/Q79-EGFP cells) was “approximately 20%”. The “body weight compared to WT_saline group” value [4] was “no significant differences”.
